We go through one compound from US5134150A, “Inhibition of the 5-lipoxygenase pathway” (priority 1989, dated 1992).

In one assay the target is T1, 5-Lipoxygenase (Rattus norvegicus, UniProt P12527).
T1 construct: The activities of these enzymes in extracts of RBL-1 cells were assayed; host or cells: RBL-1
T1 sequence (P12527 1-673): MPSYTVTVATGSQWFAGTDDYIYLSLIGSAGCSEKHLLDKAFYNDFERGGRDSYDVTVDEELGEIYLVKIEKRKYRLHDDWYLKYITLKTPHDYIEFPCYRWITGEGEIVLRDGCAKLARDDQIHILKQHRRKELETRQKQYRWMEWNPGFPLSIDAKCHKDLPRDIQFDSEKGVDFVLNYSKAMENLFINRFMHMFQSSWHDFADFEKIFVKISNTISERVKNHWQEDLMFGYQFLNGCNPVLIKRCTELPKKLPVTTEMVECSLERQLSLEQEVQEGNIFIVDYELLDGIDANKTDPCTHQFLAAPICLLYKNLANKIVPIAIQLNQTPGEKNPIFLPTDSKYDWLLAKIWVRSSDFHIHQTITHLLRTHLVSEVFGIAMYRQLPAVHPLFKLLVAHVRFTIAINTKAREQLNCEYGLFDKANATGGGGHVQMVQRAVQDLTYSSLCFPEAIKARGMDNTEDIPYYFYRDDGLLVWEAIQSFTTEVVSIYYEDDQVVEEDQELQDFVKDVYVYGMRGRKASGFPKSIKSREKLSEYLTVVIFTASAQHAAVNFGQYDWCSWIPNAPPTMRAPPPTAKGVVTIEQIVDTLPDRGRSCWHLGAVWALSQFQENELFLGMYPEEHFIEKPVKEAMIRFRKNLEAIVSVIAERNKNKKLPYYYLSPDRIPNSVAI
Description: 5-HETE production by high speed supernatant of RBL-1 cells. Type of assay: biochemical. On the procedure: For in vitro experiments, compounds were dissolved at appropriate concentrations in ethanol or DMSO (dimethylsulfoxide) (final concentration≤1.0%) and then diluted to final concentrations using the buffers indicated in the text.
The activities of these enzymes in extracts of RBL-1 cells were assayed using the method of Jakschik and Lee, Nature, 287, 51-52 (1980). RBL-1 cells were obtained from the American Type Culture Collection (#CRL 1378) and were grown at 37° C. (5% CO2 in air) in spinner culture in MEM supplemented with 10% heat inactivated fetal calf serum. Harvested cells were washed with 50 mM sodium phosphate buffer, pH 7.0, containing 1 mM EDTA and 0.1% gelatin, resuspended in fresh buffer (5×10^7 cells/ml) and disrupted by nitrogen cavitation using the Parr bomb at 750 psi for 10 min. The broken cell extract was then centrifuged at 10,000× g for 20 minutes (min) and the supernatant centrifuged at 100,000 xIg for 60 min. Aliquots (0.25 mls) of the supernatant were preincubated with or without drugs for 10 min, after which 10 μl CaCl2 (50 mM) was added and the reaction was initiated with 2.5 μl of 2.5 mM arachidonic acid-1-^14 C (final concentration was 25 μM; specific activity 20,000 dpm/nmole). After incubation for 3 min at 37° C., the reaction was terminated by addition of 2 volumes (0.5 ml) ice cold acetone and the sample was allowed to deproteinize on ice for 10 min prior to centrifugation at 1,000× g for 10 min. The deproteinized supernatant was adjusted to pH 3.5 with 2N formic acid and extracted with 2 volumes of ice cold ethyl acetate. The extracted samples were dried under argon, redissolved in ethyl acetate and applied to Whatman LK5D thin layer chromatography (TLC) plates which were developed using the A-9 solvent system [organic phase of ethyl acetate: 2,2,5-trimethylpentane:acetic acid: water (110:50:20:10)] described by Hamberg and Samuelsson, J. Biol. Chem., 241, 257-263 (1966). Arachidonic acid, 5-HETE, LTB4 and PGD2 were quantified with a Berthold LB 2832 autoscanner.
The 5-lipoxygenase and LTA4 synthetase activities were further studied under the following conditions. An additional centrifugation of the RBL-1 supernatant was run at 100,000× g for 60 min, to remove the particulate cyclooxygenase activity. Sample incubation was done under conditions similar to those described above, i.e., 2 mM CaCl2 and […] arachidonic acid-1-^14 C, however, with an incubation time of 5 min at 5° C. Under these conditions, only the 5-lipoxygenase pathway metabolites were detectable. The 5-HETE and di-HETEs were formed at a linear rate, and substantial amounts of the arachidonic acid-1-^14 C substrate were utilized.

Assay [1] relates to LTB4 synthesis by peritoneal exudate cells. Description: Ex vivo production of LTB4 from peritoneal exudate cells of drug-treated mice. The class given is in vivo, mouse. As to conditions: for inhibition at 100 mg/kg: Mus musculus, po, 100 mg/kg p.o. From the text:
In the following Examples where mice were used, they were male Balb/c mice (20-28 g), and where rats were used, they were male Lewis rats (180-210 g). All mice and rats were obtained from Charles River Breeding Laboratories, Kingston, N.Y. Within a single experiment, mice and rats were sex and age matched. Auranofin, phenidone, indomethacin, naproxen, and ibuprofen were each used as the free base. The compounds of Formula (I) were used either as the free base or in the appropriate salt form. Levamisole was used as the hydrochloride salt. […] Nordihydroguaiaretic acid (NDGA) was solubilized in dimethylacetamide and diluted with olive oil for subcutaneous administration. Carrageenan-induced peritoneal exudate cells from normal or drug-treated mice were washed and suspended in 2.2 ml of phosphate buffered saline. […] The cell preparation was centrifuged at 1500 rpm for 10 min and the supernatant was extracted using a C-18 silica column. […] A tetrahydrofuran, methanol, water, acetic acid (25:30:45: 0.1) solvent system, adjusted to pH 5.5 with ammonium hydroxide, was used at a flow rate of 0.7 ml/min. Cell derived LTB4 was quantified utilizing standard curves constructed with known amounts of synthetic LTB4.

By inhibition is commonly meant the share of the control response that was lost under treatment. Higher therefore signals a response far below the control.

Take `Fc1ccc(-c2nc3n(c2-c2ccncc2)CCS3)cc1` [Compound 1]: the 5-HETE at 5-Lipoxygenase (1 μM) was 8.86 ± 0.31 nM/ml; on 5-Lipoxygenase (3.3 μM) it was 7.63 ± 0.44 nM/ml; on 5-Lipoxygenase (10 μM), 5.57 ± 0.35 nM/ml; on 5-Lipoxygenase (33 μM) it was 3.36 ± 0.07 nM/ml; at 5-Lipoxygenase (100 μM), 1.08 ± 0.13 nM/ml. Also, the inhibition at 100 mg/kg is 90% in assay [1] (Experiment 1), 23% in assay [1] (Experiment 2) and 100% in assay [1] (Experiment 3). Further, in assay [1] (mouse, in vivo), the “LTB4 production ex vivo, result in words” value is given as “Impairment of LTB4 production”.
